Test results: PubChem BioAssay (NCI)
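Cultured in 96-well plates, cells were exposed to test compound for 48 hours across five concentrations. At the GI50, growth is halved. TGI marks complete inhibition of growth.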

How the values were obtained:
Assay in all cases: NCI tumour cell line growth inhibition, 48 h
[1] = test system: K-562 leukemia
[2] = test system: UO-31 renal
[3] = test system: BT-549 breast
[4] = test system: M14 melanoma
[5] = test system: NCI-H460 lung
[6] = test system: SW-620 colon
[7] = test system: MOLT-4 leukemia
[8] = test system: U251 CNS
[9] = test system: SNB-75 CNS
[10] = test system: NCI-H23 lung
[11] = test system: 786-0 renal
[12] = test system: MCF7 breast
[13] = test system: DU-145 prostate
[14] = test system: NCI-H522 lung
[15] = test system: NCI-H226 lung
[16] = test system: MDA-MB-231 breast
[17] = test system: OVCAR-3 ovarian
[18] = test system: SK-MEL-5 melanoma
[19] = test system: NCI/ADR-RES ovarian
[20] = test system: SF-539 CNS
[21] = test system: RPMI-8226 leukemia
[22] = test system: TK-10 renal
[23] = test system: SF-295 CNS
[24] = test system: IGROV1 ovarian
[25] = test system: A498 renal
[26] = test system: OVCAR-5 ovarian
[27] = test system: EKVX NSCLC
[28] = test system: MDA-MB-435
[29] = test system: HS 578T breast
[30] = test system: HCC-2998 colon
[31] = test system: OVCAR-4 ovarian
[32] = test system: CAKI-1 renal
[33] = test system: A549 NSCLC
[34] = test system: HOP-92 NSCLC
[35] = test system: KM12 colon
[36] = test system: HCT-15 colon
[37] = test system: SK-MEL-2 melanoma
[38] = test system: HOP-62 NSCLC
[39] = test system: PC-3 prostate
[40] = test system: SNB-19 CNS
[41] = test system: LOX IMVI melanoma
[42] = test system: CCRF-CEM leukemia
[43] = test system: MALME-3M melanoma
[44] = test system: ACHN renal
[45] = test system: SK-OV-3 ovarian
[46] = test system: SR leukemia
[47] = test system: SK-MEL-28 melanoma
[48] = test system: SN12C renal
[49] = test system: OVCAR-8 ovarian
[50] = test system: UACC-257 melanoma
[51] = test system: HT29 colon
[52] = test system: T-47D breast
[53] = test system: SF-268 CNS
[54] = test system: UACC-62 melanoma
[55] = test system: RXF 393 renal
[56] = test system: HCT-116 colon
[57] = test system: HL-60(TB) leukemia
[58] = test system: COLO 205 colon

C=C1C(=O)O[C@@H]2[C@@H]3O[C@@H](C[C@@H]13)[C@](C)(O)CC/C=C(\C)CCC[C@H]2C
GI50 [1]: 0.416 µM
TGI [1]: 4.01 µM
GI50 [2]: 1.25 µM
TGI [2]: 2.79 µM
GI50 [3]: 1.84 µM
TGI [3]: 4.86 µM
GI50 [4]: 1.83 µM
TGI [4]: 3.75 µM
GI50 [5]: > 100 µM
TGI [5]: > 100 µM
GI50 [6]: 0.739 µM
TGI [6]: 2.31 µM
GI50 [7]: 1.39 µM
TGI [7]: 3.37 µM
GI50 [8]: 2.84 µM
TGI [8]: 12.8 µM
GI50 [9]: 14.1 µM
TGI [9]: > 35.8 µM
TGI [10]: 3.67 µM
GI50 [11]: 2.56 µM
TGI [11]: 9.03 µM
GI50 [12]: > 100 µM
TGI [12]: > 100 µM
GI50 [13]: 3.08 µM
TGI [13]: 12.6 µM
GI50 [14]: 1.65 µM
TGI [14]: 4.05 µM
GI50 [15]: 2.08 µM
TGI [15]: 7.4 µM
GI50 [16]: 1.51 µM
TGI [16]: 4.14 µM
GI50 [17]: 1.65 µM
TGI [17]: 3.86 µM
GI50 [18]: 5.57 µM
TGI [18]: 13.9 µM
GI50 [19]: 0.523 µM
TGI [19]: 2.13 µM
GI50 [20]: 13 µM
TGI [20]: 25.7 µM
GI50 [21]: 0.258 µM
TGI [21]: 1.47 µM
GI50 [22]: 1.5 µM
TGI [22]: 3.26 µM
GI50 [23]: 9.38 µM
TGI [23]: 23.9 µM
GI50 [24]: 1.06 µM
TGI [24]: 4.92 µM
GI50 [25]: 20.9 µM
TGI [25]: 35.5 µM
GI50 [26]: 3.19 µM
TGI [26]: 12.6 µM
GI50 [27]: 7.55 µM
TGI [27]: 20 µM
GI50 [28]: 1.97 µM
TGI [28]: 6.17 µM
GI50 [29]: 5.99 µM
TGI [29]: 24.9 µM
GI50 [30]: 0.83 µM
TGI [30]: 3.88 µM
GI50 [31]: 2.38 µM
TGI [31]: > 23 µM
GI50 [32]: 0.957 µM
TGI [32]: 2.59 µM
GI50 [33]: 9.21 µM
TGI [33]: 25.2 µM
GI50 [34]: 0.5 µM
TGI [34]: 2.39 µM
GI50 [35]: 6.35 µM
TGI [35]: 18.1 µM
GI50 [36]: 1.39 µM
TGI [36]: 2.74 µM
GI50 [37]: 9.32 µM
TGI [37]: 24.2 µM
TGI [38]: 31.7 µM
GI50 [39]: 1.76 µM
TGI [39]: 5.27 µM
GI50 [40]: 29 µM
TGI [40]: > 49 µM
GI50 [41]: 1.51 µM
TGI [41]: 3 µM
GI50 [42]: 0.394 µM
TGI [42]: 1.91 µM
GI50 [43]: 0.18 µM
TGI [43]: 2.61 µM
GI50 [44]: 0.926 µM
TGI [44]: 2.34 µM
GI50 [45]: 28.7 µM
TGI [45]: > 50.4 µM
GI50 [46]: 0.395 µM
TGI [46]: 2.05 µM
GI50 [47]: 2.36 µM
TGI [47]: > 21.8 µM
GI50 [48]: 2.06 µM
TGI [48]: 6.64 µM
GI50 [49]: 1.91 µM
TGI [49]: 10.4 µM
GI50 [50]: 4.9 µM
TGI [50]: 14.9 µM
GI50 [51]: 3.69 µM
TGI [51]: > 33.9 µM
TGI [52]: > 22.6 µM
GI50 [53]: > 100 µM
TGI [53]: > 100 µM
GI50 [54]: 3.51 µM
TGI [54]: 14.1 µM
GI50 [55]: 1.77 µM

C[N+]1([O-])CCC(O)(C2CC2)CC1 (centres undefined)
TGI [1]: > 100 µM
TGI [2]: > 100 µM
TGI [3]: > 100 µM
TGI [4]: > 100 µM
TGI [6]: > 100 µM
TGI [7]: > 100 µM
TGI [8]: > 100 µM
TGI [9]: > 100 µM
TGI [10]: > 100 µM
TGI [11]: > 100 µM
TGI [12]: > 100 µM
TGI [56]: > 100 µM
TGI [13]: > 100 µM
TGI [57]: > 100 µM
TGI [15]: > 100 µM
TGI [16]: > 100 µM
TGI [17]: > 100 µM
TGI [18]: > 100 µM
TGI [58]: > 100 µM
TGI [19]: > 100 µM
TGI [21]: > 100 µM
TGI [22]: > 100 µM
TGI [23]: > 100 µM
TGI [24]: > 100 µM
TGI [26]: > 100 µM
TGI [27]: > 100 µM
TGI [28]: > 100 µM
TGI [29]: > 100 µM
TGI [30]: > 100 µM
TGI [31]: > 100 µM
TGI [32]: > 100 µM
TGI [33]: > 100 µM
TGI [35]: > 100 µM
TGI [36]: > 100 µM
TGI [37]: > 100 µM
TGI [38]: > 100 µM
TGI [39]: > 100 µM
TGI [40]: > 100 µM
TGI [41]: > 100 µM
TGI [42]: > 100 µM
TGI [43]: > 100 µM
TGI [44]: > 100 µM
TGI [45]: > 100 µM
TGI [46]: > 100 µM
TGI [47]: > 100 µM
TGI [48]: > 100 µM
TGI [49]: > 100 µM
TGI [50]: > 100 µM
TGI [51]: > 100 µM
TGI [52]: > 100 µM
TGI [53]: > 100 µM
TGI [54]: > 100 µM
TGI [55]: > 100 µM
